Holding throughout (format): cell-based
One series deals with AIMP2-DX2 mRNA. Briefly: RT-PCR of AIMP2-DX2 mRNA level in H460 cells treated with C11. The conditions noted are these: different concentrations of C11, RT-PCR, FIG. 1. How it is done:
(§1) The present inventors conducted western blotting and RT-PCR using AIMP2 antibody and AIMP2-DX2 antibody (purchased from Neomics (Korea)) to verify the effect of the compound of chemical formula 1 on AIMP2-DX2 activity.
H460 cells were treated with C11 with different concentrations, and then total-RNA was isolated according to the protocol of the manufacturer (Qiagen). The cells were collected, and mixed with 350 μl of a lysis buffer, which was then homogenized using a homogenizer or a syringe. After 350 μl of 70% ethanol was added, the lysate was shook above and below several times, and loaded on the column, followed by centrifuge at 13,000 RPM for 15 seconds. The column was washed twice with a washing buffer, and then RNA was eluted with 40 μl of RNase-free DW.
For reverse transcription, 1 μg of the isolated RNA was used as AIMP2-specific primers (SEQ ID NO: 2 and SEQ ID NO: 3) and DX2-specific primers (SEQ ID NO: 4 and SEQ ID NO: 5). After the reverse transcription, the product was diluted with 3-fold DW, and then 1 μl was used for 30 μl of PCR reaction including 0.5 μl dNTP (each 2.5 mM), 0.5 μl of the AIMP2 specific primer set (SEQ ID NO: 2 and SEQ ID NO: 3) and DX2 specific primers (SEQ ID NO: 4 and SEQ ID NO: 5) (each 10 pM), 1.5 μl of DMSO, and 0.1 μl of Taq polymerase (5 U/μl).

The next series deals with T1, AIMP2-DX2 (Homo sapiens, UniProt Q13155).
T1 construct: the protein was extracted from the cells using a RIPA buffer containing protease; endogenous in cells; host or cells: H460
T1 sequence (Q13155 1-251 isoform Q13155-2): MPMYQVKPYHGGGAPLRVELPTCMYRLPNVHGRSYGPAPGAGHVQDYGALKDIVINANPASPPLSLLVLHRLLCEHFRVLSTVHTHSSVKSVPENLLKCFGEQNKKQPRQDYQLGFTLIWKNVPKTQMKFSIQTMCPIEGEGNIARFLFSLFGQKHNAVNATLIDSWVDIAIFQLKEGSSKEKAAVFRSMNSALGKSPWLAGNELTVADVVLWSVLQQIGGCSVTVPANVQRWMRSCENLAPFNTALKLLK
The experiment in a line: Western blotting of AIMP2-DX2 protein level in H460 cells. The conditions noted are these: FIG. 2. How it is done: as §1
(§2) A western blotting test was conducted to investigate the effect of C11 on the AIMP2-DX2 protein level.
(§3) H460 cells were treated with the compound, C11, for a predetermined period of time, and the protein was extracted from the cells using a RIPA buffer containing protease. The protein was isolated using 10 to 12% SDS-PAGE, and then immunoblotting was conducted using an ECL system as a specific antibody.

In a further series the test system is AIMP2. Briefly: Western blotting of AIMP2 protein expression in H460 cells. The note with it: FIG. 2. On the procedure:
as §1, §2, §3
On the technique in general: In western blotting, separated proteins are transferred to a membrane and probed.

Series [1] concerns lung cancer cell line NCI-H460. Briefly: MTT assay, cytotoxicity on lung cancer cells (H460). The conditions noted are these: NCI-H460, serum free RPMI, 0.04 uM, 0.4 uM, 4 uM and 40 uM, 48 hours, FIG. 3. How it is done:
A lung cancer cell line NCI-H460 was cultured in an RPMI medium (HyQ RPMI-1640, Hyclone) containing 10% fetal bovine serum and 1% penicillin/streptomycin for 48 hours, and then transferred to a 96-well plate. After 12 hours, the medium was exchanged with the serum free RPMI medium, and then was treated with the compound of chemical formula 1 with 0.04 uM, 0.4 uM, 4 uM, and 40 uM. After 48 hours, MTT assay was conducted.
(Tetrazolium assays rely on reduction of a dye to a coloured formazan, in cell work by metabolically active cells.)

Series [2] deals with WI-26 human diploid fibroblast cell line from embryonic lung tissue. The experiment in a line: MTT assay, cytotoxicity on normal cell line WI-26. The conditions noted are these: WI-26 cells, compared with a control, FIG. 4. On the procedure:
In order to evaluate cytotoxicity of C11 on a normal cell line, WI-26, which is a human diploid fibroblast cell line from embryonic lung tissue, was treated with C11, and then cell viability was measured by MTT assay and compared with a control.

For `Cc1ccc(S(=O)(=O)N[C@@H](CC(C)C)C(=O)N2CCOCCOCCOCC2)cc1` [C11, 1,4,7-Trioxa-10-azacyclododecane, 10-[4-methyl-2-[[(4-methylphenyl)sulfonyl]amino]-1-oxopentyl]], the “effect on the mRNA level of AIMP2-DX2” value in the series with AIMP2-DX2 mRNA was “no effect”. For the same compound, the “effect on the AIMP2-DX2 protein level” value at AIMP2-DX2 is “reduced the AIMP2-DX2 protein level in a concentration dependent manner”. Further, the “effect on the AIMP2 protein expression” value in the series with AIMP2 is on record as “no effect”. In addition, the “lung cancer cell line viability (MTT)” value in series [1] is recorded as “killed by the compound, C11, in a concentration dependent manner”. Further, the “cytotoxicity on normal cells (cell viability, MTT)” value in series [2] is “cytotoxicity was not observed”.
